From PubChem BioAssay (NCI)
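Five compound concentrations were applied to cells in 96-well plates for 48 hours; endpoints were derived by simple linear interpolation of the resulting dose-response curve. At the GI50, growth is halved. TGI denotes the concentration required for complete inhibition of growth.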

Key:
Test in all cases: growth of human tumour cells (NCI), 48 h; in the data active = GI50 below about 0.43 µM; inactive = the rest
[1] = system: CAKI-1 renal
[2] = system: NCI-H460 lung
[3] = system: SK-MEL-5 melanoma
[4] = system: M14 melanoma
[5] = system: HS 578T breast
[6] = system: KM12 colon
[7] = system: SK-MEL-2 melanoma
[8] = system: HOP-92 NSCLC
[9] = system: OVCAR-4 ovarian
[10] = system: HCT-116 colon
[11] = system: HOP-62 NSCLC
[12] = system: U251 CNS
[13] = system: TK-10 renal
[14] = system: UO-31 renal
[15] = system: SR leukemia
[16] = system: UACC-257 melanoma
[17] = system: LOX IMVI melanoma
[18] = system: RPMI-8226 leukemia
[19] = system: HT29 colon
[20] = system: SN12C renal
[21] = system: OVCAR-5 ovarian
[22] = system: CCRF-CEM leukemia
[23] = system: OVCAR-8 ovarian
[24] = system: PC-3 prostate
[25] = system: MOLT-4 leukemia
[26] = system: UACC-62 melanoma
[27] = system: HCT-15 colon
[28] = system: SF-295 CNS
[29] = system: RXF 393 renal
[30] = system: SNB-75 CNS
[31] = system: ACHN renal
[32] = system: A549 NSCLC
[33] = system: SF-539 CNS
[34] = system: MDA-MB-435
[35] = system: NCI/ADR-RES ovarian
[36] = system: OVCAR-3 ovarian
[37] = system: COLO 205 colon
[38] = system: BT-549 breast
[39] = system: MCF7 breast
[40] = system: HCC-2998 colon
[41] = system: SK-OV-3 ovarian
[42] = system: SW-620 colon
[43] = system: NCI-H226 lung
[44] = system: MALME-3M melanoma
[45] = system: NCI-H23 lung
[46] = system: HL-60(TB) leukemia
[47] = system: T-47D breast
[48] = system: DU-145 prostate
[49] = system: MDA-MB-231 breast
[50] = system: K-562 leukemia
[51] = system: SK-MEL-28 melanoma
[52] = system: SNB-19 CNS
[53] = system: EKVX NSCLC
[54] = system: 786-0 renal
[55] = system: NCI-H522 lung
[56] = system: SF-268 CNS
[57] = system: IGROV1 ovarian
[58] = system: A498 renal

O=C(NCc1cccnc1)c1ccc([N+](=O)[O-])o1
0.602 µM: TGI [55]
14.2 µM: TGI [41]
5.03 µM: TGI [16]
32.2 µM: TGI [8]
6.89 µM: TGI [36]
3.76 µM: TGI [33]
6.58 µM: TGI [17]
25 µM: TGI [46]
4.06 µM: TGI [34]
5.58 µM: TGI [42]
6.05 µM: TGI [40]
3.73 µM: TGI [2]
7.88 µM: TGI [44]
13.3 µM: TGI [1]
2.37 µM: TGI [19]
13.4 µM: TGI [10]
> 9.5 µM: TGI [5]
> 32.5 µM: TGI [15] | TGI [18] | TGI [22] | TGI [25] | TGI [49] | TGI [50] | TGI [53]
23.9 µM: TGI [35]
6.38 µM: TGI [3]
> 14.7 µM: TGI [14]
7.28 µM: TGI [32]
> 15.1 µM: TGI [38]
9.02 µM: TGI [58]
8.26 µM: TGI [52]
6.85 µM: TGI [45]
16.6 µM: TGI [54]
10.4 µM: TGI [13]
4.42 µM: TGI [26]
> 24.5 µM: TGI [57]
5.12 µM: TGI [4] | TGI [29]
14.5 µM: TGI [23]
7.58 µM: TGI [51]
32.4 µM: TGI [47]
4.79 µM: TGI [11]
1.76 µM: TGI [27]
5.21 µM: TGI [39]
1.28 µM: TGI [37]
5.32 µM: TGI [6]
active: GI50 [55] 0.141 µM
13.2 µM: TGI [43]
14.4 µM: TGI [7]
7.14 µM: TGI [28]
> 15.5 µM: TGI [31]
4.11 µM: TGI [48]
3.83 µM: TGI [12]
inactive: GI50 [1] 2.39 µM | GI50 [2] 1.62 µM | GI50 [3] 2.18 µM | GI50 [4] 1.42 µM | GI50 [5] 2.52 µM | GI50 [6] 1.32 µM | GI50 [7] 4.91 µM | GI50 [8] > 17.2 µM | GI50 [9] 6.22 µM | GI50 [10] 1.42 µM | GI50 [11] 1.3 µM | GI50 [12] 1.03 µM | GI50 [13] 3.33 µM | GI50 [14] 2.83 µM | GI50 [15] 1.24 µM | GI50 [16] 1.13 µM | GI50 [17] 1.2 µM | GI50 [18] 4.72 µM | GI50 [19] 0.825 µM | GI50 [20] 1.19 µM | GI50 [21] 5.64 µM | GI50 [22] 14.5 µM | GI50 [23] 2.37 µM | GI50 [24] 2.52 µM | GI50 [25] > 20 µM | GI50 [26] 1.06 µM | GI50 [27] 0.647 µM | GI50 [28] 2.48 µM | GI50 [29] 1.15 µM | GI50 [30] 1.18 µM | GI50 [31] 3.56 µM | GI50 [32] 2.54 µM | GI50 [33] 1.12 µM | GI50 [34] 1.03 µM | GI50 [35] 1.66 µM | GI50 [36] 1.61 µM | GI50 [37] 0.659 µM | GI50 [38] 9.77 µM | GI50 [39] 0.973 µM | GI50 [40] 1.83 µM | GI50 [41] 4.13 µM | GI50 [42] 1.47 µM | GI50 [43] 4.21 µM | GI50 [44] 1.56 µM | GI50 [45] 2.26 µM | GI50 [46] 8.44 µM | GI50 [47] 6.9 µM | GI50 [48] 1.11 µM | GI50 [49] 16.1 µM | GI50 [50] 2.06 µM | GI50 [51] 2.83 µM | GI50 [52] 2.89 µM | GI50 [53] 13.3 µM | GI50 [54] 2.9 µM | GI50 [56] 4.83 µM | GI50 [57] 4.52 µM | GI50 [58] 3.25 µM
> 22.1 µM: TGI [56]
18 µM: TGI [21]
> 19.8 µM: TGI [9]
> 19.1 µM: TGI [24]
4.49 µM: TGI [20]
7.24 µM: TGI [30]

C/C(=N\NC(=O)c1ccncc1)c1ccccc1O
21.4 µM: TGI [1]
11.6 µM: TGI [46]
97.3 µM: TGI [44]
inactive: GI50 [1] 0.805 µM | GI50 [2] 0.683 µM | GI50 [3] 3.6 µM | GI50 [4] 4.95 µM | GI50 [5] 26.7 µM | GI50 [6] 2.95 µM | GI50 [7] > 100 µM | GI50 [8] 2.27 µM | GI50 [9] 1.94 µM | GI50 [10] 2.32 µM | GI50 [11] 3.82 µM | GI50 [12] 3.31 µM | GI50 [13] 3.03 µM | GI50 [14] 0.973 µM | GI50 [15] 1.8 µM | GI50 [16] 4.14 µM | GI50 [17] 1.46 µM | GI50 [18] 4.68 µM | GI50 [19] 1.6 µM | GI50 [20] 4.79 µM | GI50 [21] 4.87 µM | GI50 [22] 0.742 µM | GI50 [23] 3.05 µM | GI50 [24] 8.66 µM | GI50 [25] 2.35 µM | GI50 [26] 3.04 µM | GI50 [27] 0.828 µM | GI50 [28] 1.38 µM | GI50 [29] 8.15 µM | GI50 [30] > 100 µM | GI50 [31] 1.64 µM | GI50 [32] 3.86 µM | GI50 [33] 2.78 µM | GI50 [34] 6.37 µM | GI50 [35] 2.23 µM | GI50 [36] 3.35 µM | GI50 [37] 2.62 µM | GI50 [38] 3.79 µM | GI50 [39] 3.72 µM | GI50 [40] 2.37 µM | GI50 [41] 4.84 µM | GI50 [42] 5.27 µM | GI50 [43] 6.27 µM | GI50 [44] 5.39 µM | GI50 [45] 4.34 µM | GI50 [46] 2.96 µM | GI50 [47] 2.24 µM | GI50 [48] 4.85 µM | GI50 [49] 5.65 µM | GI50 [50] 5.78 µM | GI50 [51] 20.9 µM | GI50 [52] 8.23 µM | GI50 [53] 2.34 µM | GI50 [54] 2.94 µM | GI50 [55] 2.82 µM | GI50 [56] 3.77 µM | GI50 [57] 1.8 µM | GI50 [58] 29 µM
28.9 µM: TGI [14]
68.7 µM: TGI [40]
> 100 µM: TGI [2] | TGI [5] | TGI [6] | TGI [7] | TGI [8] | TGI [9] | TGI [10] | TGI [11] | TGI [12] | TGI [13] | TGI [15] | TGI [16] | TGI [17] | TGI [18] | TGI [19] | TGI [20] | TGI [21] | TGI [22] | TGI [23] | TGI [24] | TGI [25] | TGI [27] | TGI [28] | TGI [29] | TGI [30] | TGI [31] | TGI [32] | TGI [33] | TGI [34] | TGI [35] | TGI [36] | TGI [37] | TGI [39] | TGI [41] | TGI [42] | TGI [43] | TGI [45] | TGI [47] | TGI [48] | TGI [49] | TGI [50] | TGI [51] | TGI [52] | TGI [53] | TGI [55] | TGI [56] | TGI [57] | TGI [58]
18.9 µM: TGI [26]
21.3 µM: TGI [54]
89.1 µM: TGI [4]
84.7 µM: TGI [38]
32.2 µM: TGI [3]
